In PMC10714400, “Antimicrobial Peptide–Peptoid Hybrids with and without Membrane Disruption” (ACS Infectious Diseases, 2023):
Converted amounts (≈) assume the structure as drawn. Where two headings read alike, the source gives them in different places. Where a SMILES comes first, the peptide text is derived from it. [ ]: non-standard residue; d: D form. Nleu = CC(C)CNCC(=O)O; Nlys = NCCCCNCC(=O)O

Key:
A. baumannii ATCC19606 = tested on: A. baumannii ATCC19606
Method in brief: (§1)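 MTT added (20–30 min, room temperature); MIC read by eye as lowest concentration inhibiting visible growth (yellow). Polymyxin B positive control from 16 μg/mL.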

S. aureus COL (MRSA) = tested on: S. aureus COL (MRSA)
Method in brief: (§2)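 Using MTT as a visual viability dye, MICs were scored as the lowest concentration with no visible growth. Prior to staining, ~5 × 10^5 CFU per well grew in MH medium for ca. 18 h at 37 °C under static conditions.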

K. pneumoniae NCTC418 = tested on: K. pneumoniae NCTC418
Method in brief: as §1

E. cloacae = settings: […] MH at pH 8.5
Method in brief: as §2

[1] = tested on: ZEM-1A (clinical MDR P. aeruginosa isolate)
Method in brief: as §2

P. aeruginosa PAO1 = tested on: P. aeruginosa PAO1
Method in brief: as §2

PA14 4.13 (phoQ) = tested on: PA14 4.13 (phoQ)
Method in brief: as §2

K. pneumoniae OXA-48 = settings: […] MH at pH 8.5
Method in brief: as §2

E. coli W3110 = tested on: E. coli W3110
Method in brief: as §2

[2] = tested on: ZEM9A (clinical MDR P. aeruginosa isolate); settings: […] MH at pH 8.5
Method in brief: as §2

PA14 4.18 (pmrB) = tested on: PA14 4.18 (pmrB)
Method in brief: as §2

PA14 2P4 (pmrB) = tested on: PA14 2P4 (pmrB)
Method in brief: as §2

[3] = tested on: human red blood cells (hRBC); experiment: Minimum hemolytic concentration (MHC); assay type: cell-based
Source text: We also measured minimal hemolysis concentrations (MHC) on human red blood cells by serial 2-fold dilution as an indication of toxicity against eukaryotic cells (Table 1).

S. maltophilia = settings: […] MH at pH 8.5
Method in brief: as §2

S. aureus Newman = settings: […] MH at pH 8.5
Method in brief: as §2

P. aeruginosa PA14 = tested on: P. aeruginosa PA14
Method in brief: as §2

B. cenocepacia = settings: diluted MH ([…] MH) at pH 8.5 (Table 2 footnote b)
Method in brief: as §2

S. epidermis = settings: […] MH at pH 8.5
Method in brief: as §2

[4] = diluted MH ([…] MH) at pH 8.5 (Table 2 footnote b)

CC(C)CN(CC(N)=O)C(=O)CN(CC(C)C)C(=O)CN(CC(C)C)C(=O)CN(CCCCN)C(=O)CN(CC(C)C)C(=O)CN(CC(C)C)C(=O)CN(CCCCN)C(=O)CN(CC(C)C)C(=O)CN(CC(C)C)C(=O)CN(CCCCN)C(=O)CNCCCCN [EB11, kkllkllklll] (H-[Nlys][Nlys][Nleu][Nleu][Nlys][Nleu][Nleu][Nlys][Nleu][Nleu][Nleu]-NH2)
MIC A. baumannii ATCC19606, […] MH at pH 7.4 (A. baumannii ATCC19606; CSV, […] MH at pH 7.4): 16 ug/mL
MIC A. baumannii ATCC19606, […] MH at pH 8.5 (A. baumannii ATCC19606; CSV, […] MH at pH 8.5): 16 ug/mL
MIC A. baumannii ATCC19606, full MH at pH 7.4 (A. baumannii ATCC19606; CSV, full MH at pH 7.4): >32 ug/mL
MIC A. baumannii ATCC19606, full MH at pH 8.5 (A. baumannii ATCC19606; CSV, full MH at pH 8.5): >32 ug/mL
MIC A. baumannii ATCC19606 […] 7.4 (A. baumannii ATCC19606; Table S2, […] MH, pH 7.4): 16 mg/L (≈ 12.1 µM)
MIC A. baumannii ATCC19606 […] 8.5 (A. baumannii ATCC19606; Table S2, […] MH, pH 8.5): 16 mg/L (≈ 12.1 µM)
MIC A. baumannii ATCC19606 Full MH 7.4 (A. baumannii ATCC19606; Table S2, full MH, pH 7.4): > 32 mg/L
MIC A. baumannii ATCC19606 Full MH 8.5 (A. baumannii ATCC19606; Table S2, full MH, pH 8.5): > 32 mg/L
MIC S. aureus COL (MRSA), […] MH at pH 7.4 (S. aureus COL (MRSA); CSV, […] MH at pH 7.4): >32 ug/mL
MIC S. aureus COL (MRSA), […] MH at pH 8.5 (S. aureus COL (MRSA); CSV, […] MH at pH 8.5): 6 ug/mL
MIC S. aureus COL (MRSA), full MH at pH 7.4 (S. aureus COL (MRSA); CSV, full MH at pH 7.4): >32 ug/mL
MIC S. aureus COL (MRSA), full MH at pH 8.5 (S. aureus COL (MRSA); CSV, full MH at pH 8.5): >32 ug/mL
MIC S. aureus COL (MRSA) […] 7.4 (S. aureus COL (MRSA); Table S2, […] MH, pH 7.4): > 32 mg/L
MIC S. aureus COL (MRSA) […] 8.5 (S. aureus COL (MRSA); Table S2, […] MH, pH 8.5): 4 to 8 mg/L
MIC S. aureus COL (MRSA) Full MH 7.4 (S. aureus COL (MRSA); Table S2, full MH, pH 7.4): > 32 mg/L
MIC S. aureus COL (MRSA) Full MH 8.5 (S. aureus COL (MRSA); Table S2, full MH, pH 8.5): > 32 mg/L
MIC S. aureus COL (MRSA) […] (S. aureus COL (MRSA); diluted MH ([…] MH, pH 8.5) per Table 1 footnote b, 16–20 h at 37 °C): >32 mg/L
MIC K. pneumoniae NCTC418, […] MH at pH 7.4 (K. pneumoniae NCTC418; CSV, […] MH at pH 7.4): 32 ug/mL
MIC K. pneumoniae NCTC418, […] MH at pH 8.5 (K. pneumoniae NCTC418; CSV, […] MH at pH 8.5): 32 ug/mL
MIC K. pneumoniae NCTC418, full MH at pH 7.4 (K. pneumoniae NCTC418; CSV, full MH at pH 7.4): >32 ug/mL
MIC K. pneumoniae NCTC418, full MH at pH 8.5 (K. pneumoniae NCTC418; CSV, full MH at pH 8.5): >32 ug/mL
MIC K. pneumoniae NCTC418 […] 7.4 (K. pneumoniae NCTC418; Table S2, […] MH, pH 7.4): 32 mg/L (≈ 24.2 µM)
MIC K. pneumoniae NCTC418 […] 8.5 (K. pneumoniae NCTC418; Table S2, […] MH, pH 8.5): 32 mg/L (≈ 24.2 µM)
MIC K. pneumoniae NCTC418 Full MH 7.4 (K. pneumoniae NCTC418; Table S2, full MH, pH 7.4): > 32 mg/L
MIC K. pneumoniae NCTC418 Full MH 8.5 (K. pneumoniae NCTC418; Table S2, full MH, pH 8.5): > 32 mg/L
MIC E. cloacae, […] MH at pH 8.5 (E. cloacae; CSV): 16 ug/mL
MIC E. cloacae (E. cloacae; Table S3): 16 mg/L (≈ 12.1 µM)
MIC P. aeruginosa ZEM-1A, […] MH at pH 8.5 ([1]; CSV, […] MH at pH 8.5): 3 ug/mL
MIC P. aeruginosa ZEM-1A ([1]; Table S3, […] MH at pH 8.5): 2 to 4 mg/L
MIC ZEM-1A [1, 4]: 2 to 4 mg/L
MIC P. aeruginosa PAO1, […] MH at pH 7.4 (P. aeruginosa PAO1; CSV, […] MH at pH 7.4): 8 ug/mL
MIC P. aeruginosa PAO1, full MH at pH 7.4 (P. aeruginosa PAO1; CSV, full MH at pH 7.4): >32 ug/mL
MIC P. aeruginosa PAO1, full MH at pH 8.5 (P. aeruginosa PAO1; CSV, full MH at pH 8.5): >32 ug/mL
Antibacterial activity as a function of NaCl concentration (P. aeruginosa PAO1; P. aeruginosa PAO1, […] MH at pH 8.5, up to 300 mM NaCl): strongly reduced
MIC P. aeruginosa PAO1 […] 7.4 (P. aeruginosa PAO1; Table S2, […] MH, pH 7.4): 8 mg/L (≈ 6.05 µM)
MIC P. aeruginosa PAO1 […] 8.5 (P. aeruginosa PAO1; Table S2, […] MH, pH 8.5): 4 mg/L (≈ 3.03 µM)
MIC P. aeruginosa PAO1 Full MH 7.4 (P. aeruginosa PAO1; Table S2, full MH, pH 7.4): > 32 mg/L
MIC P. aeruginosa PAO1 Full MH 8.5 (P. aeruginosa PAO1; Table S2, full MH, pH 8.5): > 32 mg/L
MIC P. aeruginosa PA14 4.13, […] MH at pH 8.5 (PA14 4.13 (phoQ); CSV, […] MH at pH 8.5): 6 ug/mL
MIC P. aeruginosa PA14 4.13 (PA14 4.13 (phoQ); Table S3, […] MH at pH 8.5): 4 to 8 mg/L
MIC PA14 4.13 (phoQ) (PA14 4.13 (phoQ); [4]): 4 to 8 mg/L
MIC K. pneumoniae OXA-48, […] MH at pH 8.5 (K. pneumoniae OXA-48; CSV): 32 ug/mL
MIC K. pneumoniae OXA-48 (K. pneumoniae OXA-48; Table S3): 32 mg/L (≈ 24.2 µM)
MIC E. coli W3110, […] MH at pH 7.4 (E. coli W3110; CSV, […] MH at pH 7.4): 8 ug/mL
MIC E. coli W3110, […] MH at pH 8.5 (E. coli W3110; CSV, […] MH at pH 8.5): 3 ug/mL
MIC E. coli W3110, full MH at pH 7.4 (E. coli W3110; CSV, full MH at pH 7.4): >32 ug/mL
MIC E. coli W3110, full MH at pH 8.5 (E. coli W3110; CSV, full MH at pH 8.5): >32 ug/mL
Antibacterial activity as a function of NaCl concentration (E. coli W3110; E. coli W3110, […] MH at pH 8.5, up to 300 mM NaCl): strongly reduced
MIC E. coli W3110 […] 7.4 (E. coli W3110; Table S2, […] MH, pH 7.4): 8 mg/L (≈ 6.05 µM)
MIC E. coli W3110 […] 8.5 (E. coli W3110; Table S2, […] MH, pH 8.5): 2 to 4 mg/L
MIC E. coli W3110 Full MH 7.4 (E. coli W3110; Table S2, full MH, pH 7.4): > 32 mg/L
MIC E. coli W3110 Full MH 8.5 (E. coli W3110; Table S2, full MH, pH 8.5): > 32 mg/L
MIC P. aeruginosa ZEM9A, […] MH at pH 8.5 ([2]; CSV): 4 ug/mL
MIC P. aeruginosa ZEM9A ([2]; Table S3): 4 mg/L (≈ 3.03 µM)
MIC P. aeruginosa PA14 4.18, […] MH at pH 8.5 (PA14 4.18 (pmrB); CSV, […] MH at pH 8.5): 12 ug/mL
MIC P. aeruginosa PA14 4.18 (PA14 4.18 (pmrB); Table S3, […] MH at pH 8.5): 8 to 16 mg/L
MIC PA14 4.18 (pmrB) (PA14 4.18 (pmrB); [4]): 8 to 16 mg/L
MIC P. aeruginosa PA14 2P4, […] MH at pH 8.5 (PA14 2P4 (pmrB); CSV, […] MH at pH 8.5): 12 ug/mL
MIC P. aeruginosa PA14 2P4 (PA14 2P4 (pmrB); Table S3, […] MH at pH 8.5): 8 to 16 mg/L
MIC PA14 2P4 (pmrB) (PA14 2P4 (pmrB); [4]): 8 to 16 mg/L
MHC ([3]; CSV): >2000 µg/mL
MHC ([3]; Table S2, hRBC, 10 mM phosphate buffer, 150 mM NaCl, pH 7.4, 25 °C, 4 h): > 2000 µg/mL
MHC ([3]; hRBC, 10 mM phosphate buffer, 150 mM NaCl, pH 7.4, 25 °C, 4 h): >2000 µg/mL
Hemolysis ([3]; human red blood cells): none of them showed any measurable hemolysis
MIC S. maltophilia, […] MH at pH 8.5 (S. maltophilia; CSV): 4 ug/mL
MIC S. maltophilia (S. maltophilia; Table S3): 4 mg/L (≈ 3.03 µM)
MIC S. aureus Newman, […] MH at pH 8.5 (S. aureus Newman; CSV): 4 ug/mL
MIC S. aureus Newman (S. aureus Newman; Table S3): 4 mg/L (≈ 3.03 µM)
MIC P. aeruginosa PA14, […] MH at pH 8.5 (P. aeruginosa PA14; CSV, […] MH at pH 8.5): 3 ug/mL
MIC P. aeruginosa PA14 (P. aeruginosa PA14; Table S3, […] MH at pH 8.5, 16-20 hours at 37 °C): 2 to 4 mg/L
MIC P. aeruginosa PA14 (P. aeruginosa PA14; [4]): 2 to 4 mg/L
MIC B. cenocepacia (B. cenocepacia): >32 mg/L
MIC S. epidermis, […] MH at pH 8.5 (S. epidermis; CSV): 1 ug/mL
MIC S. epidermis (S. epidermis; Table S3): 1 mg/L (≈ 0.757 µM)
